pIC50: −log10 of the molar value.
Biological target: T1, recombinant GST-p110γ (human PI3Kγ, residues 38-1102) (Homo sapiens, UniProt P48736)
T1 construct: Residues 38-1102 of human PI3Kγ are subcloned into the BamH1 and EcoR1 sites; made in house; host or cells: Sf9 (Spodoptera frugiperda) insect cells, baculovirus
Assay: PI3Kγ in vitro kinase assay (Scintillation Proximity Assay), transfer of terminal phosphate of ATP to phosphatidylinositol
Assay type: biochemical
Conditions: 12.5 μM ATP, 15 μg/ml phosphatidylinositol, 60 minutes at room temperature
From the text: Baculovirus expressing different fragments of PI3Kγ fused to GST have been previously described by Stoyanova, S., Bulgarelli-Leva, G., Kirsch, C., Hanck, T., Klinger, R., Wetzker, R., Wymann, M. P. (1997) Lipid- and protein kinase activities of G protein-coupled PI 3-kinase g: structure-activity analysis and interactions with wortmannin. Biochem. J., 324:489. Residues 38-1102 of human PI3Kγ are subcloned into the BamH1 and EcoR1 sites of the transfer vector pAcG2T (Pharmingen) to create a GST-PI3Kγ lacking the first 37 residues of PI3Kγ. To express the recombinant protein, Sf9 (Spodoptera frugiperda 9) insect cells are routinely maintained at densities between 3×10^5 and 3×10^6 cells/ml in serum containing TNMFH medium (Sigma). Sf9 cells, at a density of 2×10^6 are infected with human GST-PI3KγΔ34 baculovirus at a multiplicity of infection (m.o.i.) of 1 for 72 hours. The infected cells are harvested by centrifugation at 1400 g for 4 minutes at 4° C. and the cell pellets are frozen at −80° C. Both Sf9 and Sf21 cells work equally well. Sf9 cells (1×10^9) are resuspended in 100 ml cold (4° C.) lysis buffer (50 mM Tris-HCl pH 7.5, 1% Triton X-100, 150 mM NaCl, 1 mM NaF, 2 mM DTT and protease inhibitors. Cells are incubated on ice for 30 minutes then centrifuged at 15000 g for 20 minutes at 4° C. Purification of the supernatant sample is carried out at 4° C. by affinity chromatography using SEPHAROSE™ agarose gel beads coupled to glutathione (from Amersham Pharmacia Biotech). A cell lysate/GST resin ratio of 50:1 is used. The GST resin is firstly pre-rinsed to remove ethanol preservative and then equilibrated with lysis buffer. Cell lysate (supernatant) is added (usually as 50 ml lysate to 1 ml GST resin in 50 ml tubes) and gently rotated on a mixer at 4° C. for 2-3 hours. The unbound flow through sample is collected by centrifugation at 1000 g for 5 minutes at 4° C. using a DENLEY™ centrifuge. The 1 ml GST resin containing bound material is transferred to a 15 ml FALCON™ centrifuge tube for subsequent washing and elution steps. Firstly a series of 3 cycles of washings (mixing by gentle inversion) is performed with 15 ml ice cold wash Buffer A (50 mM Tris-HCl pH 7.5, 1% Triton X-100, 2 mM DTT) interspersed with centrifugation at 1000 g for 5 minutes at 4° C. A final single wash step is performed with 15 ml ice cold wash Buffer B (50 mM Tris-HCl pH 7.5, 2 mM DTT) and then centrifuged at 1000 g for 5 minutes at 4° C. The washed GST resin is finally eluted with 4 cycles of 1 ml ice cold elution buffer (50 mM Tris-HCl pH 7.5, 10 mM reduced glutathione, 2 mM DTT, 150 mM NaCl, 1 mM NaF, 50% ethylene glycol and protease inhibitors) interspersed with centrifugation at 1000 g for 5 minutes at 4° C. Samples are aliquoted and stored at −20° C.
An in vitro kinase assay is established that measures the transfer of the terminal phosphate of adenosine triphosphate to phosphatidylinositol. The kinase reaction is performed in a white 96 well microtitre plate as a Scintillation Proximity Assay. Each well contains 10 μl test compound in 5% dimethylsulphoxide and 20 μl assay mix (40 mM Tris, 200 mM NaCl, 2 mM ethyleneglycol-aminoethyl-tetraacetic acid (EGTA), 15 μg/ml phosphatidylinositol, 12.5 μM adenosine triphosphate (ATP), 25 mM MgCl2, 0.1 μCi [^33P]ATP). The reaction is started by the addition of 20 μl of enzyme mix (40 mM Tris, 200 mM NaCl, 2 mM EGTA containing recombinant GST-p110γ). […]

T1 sequence (P48736 38-1102): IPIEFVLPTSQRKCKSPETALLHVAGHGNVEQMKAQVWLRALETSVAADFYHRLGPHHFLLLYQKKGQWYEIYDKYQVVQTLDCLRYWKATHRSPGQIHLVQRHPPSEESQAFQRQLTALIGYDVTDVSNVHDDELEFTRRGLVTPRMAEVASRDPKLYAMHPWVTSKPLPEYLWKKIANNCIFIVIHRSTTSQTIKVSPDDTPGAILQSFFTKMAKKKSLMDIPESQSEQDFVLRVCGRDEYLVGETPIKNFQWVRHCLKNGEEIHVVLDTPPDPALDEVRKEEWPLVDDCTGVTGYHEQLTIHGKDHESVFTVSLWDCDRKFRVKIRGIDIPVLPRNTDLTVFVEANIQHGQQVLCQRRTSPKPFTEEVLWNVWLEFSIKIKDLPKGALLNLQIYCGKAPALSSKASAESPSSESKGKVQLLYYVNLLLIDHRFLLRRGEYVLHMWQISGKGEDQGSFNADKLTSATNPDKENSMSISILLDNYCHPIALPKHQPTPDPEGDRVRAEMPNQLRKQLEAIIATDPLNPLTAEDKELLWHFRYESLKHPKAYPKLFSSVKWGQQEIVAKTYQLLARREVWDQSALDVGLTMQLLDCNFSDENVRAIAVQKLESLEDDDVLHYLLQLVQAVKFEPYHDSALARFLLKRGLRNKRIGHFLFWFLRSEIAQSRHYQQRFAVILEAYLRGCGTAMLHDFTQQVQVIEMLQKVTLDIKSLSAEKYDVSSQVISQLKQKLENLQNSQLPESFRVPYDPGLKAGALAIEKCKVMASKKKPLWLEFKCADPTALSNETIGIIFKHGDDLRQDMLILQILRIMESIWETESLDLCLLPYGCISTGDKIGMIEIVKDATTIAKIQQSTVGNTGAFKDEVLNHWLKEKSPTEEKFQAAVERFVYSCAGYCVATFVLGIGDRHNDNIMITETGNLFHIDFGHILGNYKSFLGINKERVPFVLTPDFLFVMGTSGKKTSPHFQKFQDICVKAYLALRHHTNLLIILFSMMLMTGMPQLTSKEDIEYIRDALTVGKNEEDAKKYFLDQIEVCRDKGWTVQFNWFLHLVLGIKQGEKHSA

| Molecule | pIC50 |
| --- | --- |
| 2-{3-[5-(2-methanesulfinyl-6-methyl-pyrimidin-4-yl)-4-methyl-thiazol-2-yl]-ureido}-N,N-dimethyl-acetamide [Example 67] | 7.80 |
| Cc1nc(Nc2cnccn2)sc1-c1ccncc1 [Example 1, (4-Methyl-5-pyridin-4-yl-thiazol-2-yl)-pyrazin-2-yl-amine] | 7.12 |
| Cc1nc(Nc2cnccn2)sc1-c1ccnc(-n2ccnc2)c1 [Example 6, [5-(2-Imidazol-1-yl-pyridin-4-yl)-4-methyl-thiazol-2-yl]-pyrazin-2-yl-amine] | 6.78 |
| Cc1nc(Nc2cc[nH]n2)sc1-c1ccnc(N2CCOCC2)c1 [Example 11, [4-Methyl-5-(2-morpholin-4-yl-pyridin-4-yl)-thiazol-2-yl]-(1H-pyrazol-3-yl)-amine] | 7.03 |
| CCOC(=O)CCNC(=O)Nc1nc(C)c(-c2ccncc2)s1 [Example 17, 3-[3-(4-Methyl-5-pyridin-4-yl-thiazol-2-yl)-ureido]-propionic acid ethyl ester] | 6.97 |
| Cc1nc(NC(=O)NCc2cccn2C)sc1-c1ccncc1 [Example 22, 1-(4-methyl-5-pyridin-4-yl-thiazol-2-yl)-3-(1-methyl-1H-pyrrol-2-ylmethyl)-urea] | 7.30 |
| CC(=O)Nc1nc(C)c(-c2ccnc(C3CC3)n2)s1 [Example 27, N-[5-(2-Cyclopropyl-pyrimidin-4-yl)-4-methyl-thiazol-2-yl]-acetamide] | 7.77 |
| CCc1cnc(CCNC(=O)Nc2nc(C)c(-c3ccnc(Cl)c3)s2)o1 [Example 33, 1-[5-(2-chloro-pyridin-4-yl)-4-methyl-thiazol-2-yl]-3-[2-(5-ethyl-oxazol-2-yl)-ethyl]-urea] | 7.14 |
| CCc1cnc(CCNC(=O)Nc2nc(C)c(-c3cc(C)nc(OC)n3)s2)o1 [Example 56, 1-[2-(5-Ethyl-oxazol-2-yl)-ethyl]-3-[5-(2-methoxy-6-methyl-pyrimidin-4-yl)-4-methyl-thiazol-2-yl]-urea] | 6.90 |
| Cc1nc(NC(=O)NCCC(=O)OC(C)(C)C)sc1-c1ccnc(C2CC2)n1 [Example 82, 3-{3-[5-(2-cyclopropyl-pyrimidin-4-yl)-4-methyl-thiazol-2-yl]-ureido}-propionic acid tert-butyl ester] | 6.79 |
| Cc1nc(N)sc1-c1ccnc(C(C)(C)C)n1 [Example 91, 5-(2-tert-Butyl-pyrimidin-4-yl)-4-methyl-thiazol-2-ylamine] | 7.60 |
| COCCNC(=O)Nc1nc(C)c(-c2ccnc(C(C)(C)C)n2)s1 [Example 108, 1-[5-(2-tert-butyl-pyrimidin-4-yl)-4-methyl-thiazol-2-yl]-3-(2-methoxy-ethyl)-urea] | 8.30 |
| CCOCCNC(=O)Nc1nc(C)c(-c2ccnc(C(C)(C)C)n2)s1 [Example 120, 1-[5-(2-tert-butyl-pyrimidin-4-yl)-4-methyl-thiazol-2-yl]-3-(2-ethoxy-ethyl)-urea] | 8.10 |

— patent US8404684B2, “Inhibitors of phosphatidylinositol 3-kinase” (Novartis AG, priority 2003, dated 2013)
